From paper PMC6271602, “PBDE: Structure-Activity Studies for the Inhibition of Hepatitis C Virus NS3 Helicase” (Molecules, 2014)
Like-named read-outs stand apart in the source and are kept apart here.

Legend:
[1] = biological target: T1, NS3 ATPase activity (HCV NS3 protein) (Hepatitis C virus genotype 1b, UniProt Q9WMX2); experiment: Radioisotope labeling ATP hydrolysis (ATPase) assay; format: biochemical; conditions: for NS3 ATPase inhibition (result in words): structure-activity discussion of Table 2
Experimental: (§1) Following our previous report, unless otherwise stated, the standard assay reaction (10 μL) contained the following components: 25 mM MOPS-NaOH (pH 7.0), 1 mM DTT, 5 mM MgCl2, 5 mM CaCl2, 1 mM [γ-^32P] ATP, 300 nM NS3, and 0.1 μg/μL poly(U) with serial dilution of the tested compounds in DMSO. Samples were incubated at 37 °C for 10 min, and the reaction was terminated by adding 15 μL of stop solution (10 mM EDTA). A small portion (2 μL) of reaction mixture was spotted on a PEI-cellulose TLC plate (Merck Millipore, Darmstadt, Germany) and developed by ascending chromatography in 0.75 M LiCl/1 M formic acid solution for 25 min. The TLC plate was then air-dried, and applied to autoradiography measured by an Image Reader FLA-9000 and quantified by Multi Gauge V3.11 software (Fujifilm, Tokyo, Japan). For the bacterial alkaline phosphatase assay, the buffer provided with the kit (Takara Bio, Otsu, Japan) was used, and then subjected to the assay as described above.

[2] = biological target: T2, bacterial alkaline phosphatase (Escherichia coli, UniProt P00634); experiment: ATPase assay with bacterial alkaline phosphatase (specificity); format: biochemical; conditions: highest concentration tested, 200 μM
T2 construct: purchased Takara Bio BAPC75
Experimental: as §1

[3] = test system: subgenomic replicon RNA of genotype 1b N strain; experiment: HCV replication assay (subgenomic replicon, luciferase); format: cell-based; conditions: Hepatitis C virus, genotype 1b strain N replicon, 72 h, read-out: suppression of HCV replication, EC50
Experimental: The cell lines harboring the subgenomic replicon RNAs of genotype 1b strain N [27] were seeded at 2 × 10^4 cells per well in a 48-well plate 24 h before treatment. The cells were treated with PBDE at various concentrations for 72 h and lysed in cell culture lysis reagent (Promega). A luciferase assay system (Promega) was used to determine the luciferase activity, and the luminescence was measured using Luminescencer-JNR AB-2100 (ATTO, Tokyo, Japan), corresponding to the expression level of the HCV replicon.

[4] = biological target: T1, NS3 ATPase activity (HCV NS3 protein); experiment: Radioisotope labeling ATP hydrolysis (ATPase) assay; format: biochemical; conditions: PBDE 0.1 mM, NS3 600 nM, 1 mM ATP
HCV NS3 helicase = HCV NS3 helicase (Hepatitis C virus genotype 1b, UniProt Q9WMX2); format: biochemical; conditions: FRET screening; strongest of 41 extracts
NS3 RNA binding = NS3 RNA binding (Hepatitis C virus genotype 1b, UniProt Q9WMX2); experiment: Gel mobility shift assay (NS3 binding to ssRNA)
Experimental: GMSA was performed with slight modification as described previously. In brief, [γ-^32P] ATP-labeled single-stranded RNA (0.4 nM) was incubated in a buffer containing 30 mM Tris-HCl pH 7.5, 100 mM NaCl, 2 mM MgCl2, 1 mM DTT, 20 U of RNasin plus (Promega) in the presence of 300 nM NS3 protein with serial dilution of PBDE in DMSO at room temperature for 15 min in a final reaction volume of 20 μL. The protein-RNA complexes were loaded onto a 6% native-PAGE (acrylamide:bis = 19:1) and after electrophoresis in TBE buffer, the labeled RNA bands were visualized and quantified with an Image Reader FLA-9000 (Fujifilm) and Multi Gauge V3.11 software (Fujifilm), respectively.

Toxicity assay (MTS) = format: cell-based; conditions: cell lines harboring the subgenomic replicon RNAs, replicon cells, read-out: cytotoxic effect, CC50
Experimental: MTS assay was carried out to determine cytotoxicity using a CellTiter 96 aqueous one-solution cell proliferation assay kit (Promega) according to the manufacturer’s instructions.

[5] = 300 nM NS3, 1 mM [γ-32P] ATP, read-out: NS3 ATPase Inhibition IC50

T1 sequence (Q9WMX2 1027-1657): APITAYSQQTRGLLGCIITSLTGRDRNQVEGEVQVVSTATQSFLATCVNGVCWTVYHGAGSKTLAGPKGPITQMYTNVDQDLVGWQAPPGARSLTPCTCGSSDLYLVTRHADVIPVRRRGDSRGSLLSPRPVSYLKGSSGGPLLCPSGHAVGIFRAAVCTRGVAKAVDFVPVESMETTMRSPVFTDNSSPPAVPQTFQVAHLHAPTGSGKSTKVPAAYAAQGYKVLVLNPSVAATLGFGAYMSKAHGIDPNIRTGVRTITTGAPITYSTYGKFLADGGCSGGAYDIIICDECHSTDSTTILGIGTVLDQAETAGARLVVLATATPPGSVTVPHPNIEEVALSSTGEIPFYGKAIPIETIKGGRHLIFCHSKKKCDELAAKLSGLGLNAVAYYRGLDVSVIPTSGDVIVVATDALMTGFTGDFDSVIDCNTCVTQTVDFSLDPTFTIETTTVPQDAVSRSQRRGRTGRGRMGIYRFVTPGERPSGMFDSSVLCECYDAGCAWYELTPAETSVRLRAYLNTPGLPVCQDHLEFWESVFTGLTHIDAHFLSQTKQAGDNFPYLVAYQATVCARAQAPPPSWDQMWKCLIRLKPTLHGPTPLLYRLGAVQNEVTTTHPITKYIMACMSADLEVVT
HCV NS3 helicase, sequence (Q9WMX2 1027-1657): as above
NS3 RNA binding, sequence (Q9WMX2 1027-1657): as above
T2 sequence (P00634 22-471): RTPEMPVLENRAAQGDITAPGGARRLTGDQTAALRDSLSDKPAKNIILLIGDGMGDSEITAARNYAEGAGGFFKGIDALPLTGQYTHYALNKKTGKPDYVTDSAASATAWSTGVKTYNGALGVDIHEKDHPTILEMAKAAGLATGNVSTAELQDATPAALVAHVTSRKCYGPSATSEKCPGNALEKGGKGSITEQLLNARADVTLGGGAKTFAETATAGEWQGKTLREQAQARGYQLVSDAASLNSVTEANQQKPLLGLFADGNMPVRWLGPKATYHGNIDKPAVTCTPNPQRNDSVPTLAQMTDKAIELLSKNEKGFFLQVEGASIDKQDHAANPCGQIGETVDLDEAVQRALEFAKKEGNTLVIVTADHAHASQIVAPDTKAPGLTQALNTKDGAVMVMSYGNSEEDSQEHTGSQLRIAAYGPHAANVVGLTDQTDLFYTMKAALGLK

| Compound | NS3 ATPase inhibition (result in words) [1] | IC50 [1] [µM] | other results |
| --- | --- | --- | --- |
| Oc1c(Br)cc2c(c1-c1c(O)c(Br)cc3c1CCCC3)CCCC2 [Compound 13, (R)-(+)-3,3'-dibromo-5,5',6,6',7,7',8,8'-octahydro-1,1'-bi-2,2'-naphthalenediol] | no activity | – | IC50 [1, 5]: > 200 µM |
| Oc1ccc2cc(Br)ccc2c1Br [Compound 10, 1,6-dibromo-2-naphthol] | did not exhibit the inhibitory activity | > 200 | – |
| Oc1ccc(Cl)cc1-c1cc(Cl)c(Cl)c(Cl)c1Cl [Compound 15, 2-Hydroxy-2',3',4',5,5'-pentachlorobiphenyl] | most potent inhibitory activity of all the analogs in this study | 54 | – |
| Oc1c(-c2ccccc2)cc(-c2ccc(Br)cc2)cc1-c1ccccc1 [Compound 16, 4-(4-bromophenyl)-2,6-diphenylphenol] | did not show inhibitory activity | – | IC50 [1, 5]: > 200 µM |
| Oc1c(Br)cc2ccccc2c1-c1c(O)c(Br)cc2ccccc12 [Compound 12, (R)-(+)-3-3'-dibromo-1,1'-bi-2-naphthol] | no activity | – | IC50 [1, 5]: > 200 µM |
| CC(C)(c1cc(Br)c(O)c(Br)c1)c1cc(Br)c(O)c(Br)c1 [Compound 6, 3,3',5,5'-tetrabromobisphenol A] | same level of inhibition as that of bromophene 3 | 120 | – |
| Brc1ccc(Oc2ccc(Br)cc2Br)c(Br)c1 [Compound 17, 2,2',4,4'-tetrabromodiphenyl ether] | complete loss of the inhibitory activity | > 200 | – |
| Oc1cc(Cl)ccc1Oc1ccc(Cl)cc1Cl [Compound 4, triclosan, reference compound] | moderate levels of inhibition | 150 | – |
| Oc1c(F)c(F)c(-c2c(F)c(F)c(F)c(F)c2F)c(F)c1F [Compound 11, 2,3,5,6-tetrafluoro-4-(pentafluorophenyl)phenol] | inactive | > 200 | – |
| CC(C)(c1cc(Cl)c(O)c(Cl)c1)c1cc(Cl)c(O)c(Cl)c1 [Compound 9, tetrachlorobisphenol A] | same level of inhibition as that of bromophene 3 | 94 | – |
| Oc1c(Br)cc(Br)cc1-c1cc(Br)cc(Br)c1O [Compound 3, Bromophene] | remained at the same level as that of PBDE (1) | 94 | – |
| Oc1c(Br)cc(Br)cc1Br [Compound 5, 2,4,6-tribromophenol] | did not exhibit the inhibitory activity | > 200 | – |
| COc1cc(Br)cc(Br)c1Oc1ccc(Br)cc1Br [Compound 2, PBDE methyl ether] | complete loss of the inhibitory activity | > 200 | – |
| Oc1cc(Br)cc(Br)c1Oc1ccc(Br)cc1Br [Compound 1, 6-hydroxy-2,2',4,4'-tetrabromodiphenyl ether] | – | 80 | inhibition of ATPase activity of bacterial alkaline phosphatase [2]: no inhibition; EC50 [3]: 3.3 µM; NS3 ATPase inhibition in presence and absence of poly(U) RNA [4]: significantly active in both the presence and absence of poly(U); inhibition of NS3 helicase activity (HCV NS3 helicase): 37%; IC50 (NS3 RNA binding): 68 µM; CC50 at 72 h (Toxicity assay (MTS)): > 5 µM |
| CC(C)(c1cc(Br)c(OCCO)c(Br)c1)c1cc(Br)c(OCCO)c(Br)c1 [Compound 14, 4,4'-isopropylidenebis[2-(2,6-dibromophenoxy)ethanol]] | loss of activity | > 200 | – |
| Oc1ccc2cc(Br)ccc2c1-c1c(O)ccc2cc(Br)ccc12 [Compound 8, (R)-(−)-6,6'-dibromo-1,1'-bi-2-naphthol] | most potent activity | – | IC50 [1, 5]: 54 µM |
| Oc1ccccc1-c1ccccc1 [Compound 7, O-hydroxybiphenyl] | loss of the inhibitory activity | > 200 | – |
